These results are taken from article PMC7672472 (2020).

For experiment [1], the system named is MA-46 (MA) (DNA, aptamer) CTTACGACTCAGGCATTTTGCCGGGTAACGAAGTTACTGTCGTAAG
Kind of experiment: ITC. The note with it: 20 mM Na+, 5 mM Mg2+.

Experiment [2] concerns Dopamine Aptamer (DNA, aptamer) CGACGCCAGTTTGAAGGTTCGTTCGCAGGTGTGGAGTGACGTCG
Particulars: 140 mM Na+, 4 mM K+, 2 mM Mg2+; 10 mM phosphate pH 7.4, 25 °C; 200 μM ligand.

Experiment [3] concerns SCA2.1 (DNA, aptamer) CTTACGACCTTAAGTGGGGTTCGGGTGGAGTTTATGGGGTCGTAAG
The experiment in a line: ITC. Particulars: 20 mM Na+, 0.5 mM Mg2+; 10 mM Tris-HCl pH 7.4, 23 °C; one-site model.

Experiment [4] shares this test system. Particulars: 20 mM Na+, 0.5 mM Mg2+; 10 mM Tris-HCl pH 7.4, 25 °C; 50 μM ligand.
The subject of experiment [5] is Dopamine Aptamer (DNA, aptamer) CGACGCCAGTTTGAAGGTTCGTTCGCAGGTGTGGAGTGACGTCG
The experiment in a line: T5 Exo/Exo I digestion, SYBR Gold fluorescence. The note with it: 140 mM Na+, 4 mM K+, 2 mM Mg2+; 10 mM phosphate pH 7.4, 25 °C; 200 μM ligand.

The subject of experiment [6] is MMC1 (DNA, aptamer) CTTACGACCAGGGTTGGTTTCATCGGTGGTGTAATATGGTCGTAAG
The experiment in a line: ITC. Particulars: 20 mM Na+, 0.5 mM Mg2+.

In experiment [7] the test system is ATP-33 (DNA, aptamer) CGCACCTGGGGGAGTATTGCGGAGGAAGGTGCG
The experiment in a line: T5 Exo digestion, PAGE. The note with it: 10 mM Mg2+; 10 mM Tris-HCl pH 7.4, 25 °C; 250 μM ligand.

The test system of experiment [8] is ATP-28 (DNA, aptamer) CTGGGGGAGTATTGCGGAGGAAGGTGCG
Kind of experiment: ITC. The note with it: 10 mM Mg2+; 10 mM Tris-HCl pH 7.4, 23 °C; sequential model, site 1 of 2.

Experiment [9] deals with MA-Mutant (DNA, aptamer) CTTACGACGCAGGCATTTTGCCGGGTAACGAAGTTACTGTCGTAAG
The experiment in a line: ITC. The note with it: 20 mM Na+, 5 mM Mg2+.

For experiment [10], the system named is MA-41 (DNA, aptamer) GACTCAGGCATTTTGCCGGGTAACGAAGTTACTGTCGTAAG
The experiment in a line: ITC. Particulars: 20 mM Na+, 5 mM Mg2+; 10 mM Tris-HCl pH 7.4, 23 °C; one-site model.

Experiment [11] has as its system MMC4 (DNA, aptamer) CTTACGAAGCAGGTGGGTAGGATAGTGTGTGTGCTGTCGTCGTAAG
Kind of experiment: continuous-injection ITC and exonuclease assay. Particulars: 20 mM Na+, 0.5 mM Mg2+.

The subject of experiment [12] is MMC1-Mutant (DNA, aptamer) CTTACGACCAGGGTTGGTTTCACCGGTGGTGTAATATGGTCGTAAG
Kind of experiment: ITC. The note with it: 20 mM Na+, 0.5 mM Mg2+; 10 mM Tris-HCl pH 7.4, 23 °C; 2000 μM ligand in syringe.

The test system of experiment [13] is MMC2 (DNA, aptamer) CTTACGACCAGGGTTGGTCTCATCGGTGGTGTAATATGGTCGTAAG
The experiment in a line: continuous-injection ITC and exonuclease assay. Particulars: 20 mM Na+, 0.5 mM Mg2+.

The test system of experiment [14] is MMC5 (DNA, aptamer) CTTACCGACTATATGGGCAGTATCGTCTAGTGCCTAAGGGTCGTAAG
Kind of experiment: continuous-injection ITC and exonuclease assay. Particulars: 20 mM Na+, 0.5 mM Mg2+; 10 mM Tris-HCl pH 7.4, 23 °C; 1000 μM ligand in syringe; very weak or no binding.

Experiment [15] deals with MMC1-42 (DNA, aptamer) CGACCAGGGTTGGTTTCATCGGTGGTGTAATATGGTCGTAAG
Kind of experiment: ITC. The note with it: 20 mM Na+, 0.5 mM Mg2+; 10 mM Tris-HCl pH 7.4, 23 °C; one-site fit, half racemate concentration stated for MMC1 titrations.

Experiment [16] relates to MMC3 (DNA, aptamer) CTTACGGCCAGGGTTGGTCTCATCGGTGGTGTAATATGGTCGTAAG
Kind of experiment: continuous-injection ITC and exonuclease assay. Particulars: 20 mM Na+, 0.5 mM Mg2+.

Setting [17] is: 10 mM Tris-HCl pH 7.4, 23 °C, 1000 μM ligand in syringe.
Where [18] appears, read: 10 mM Tris-HCl pH 7.4, 23 °C, one-site model.

The structures appear in SMILES notation. Like-named read-outs stand apart in the source and are kept apart here.

As usually defined, the Kd is the concentration at which binding is half-saturated. Lower therefore signals a tighter complex.

In experiment [1] (setting [17]), `CCN(CC)CC(=O)Nc1c(C)cccc1C` displayed a Kd of more than 1000 µM.

Compound `CN(C)CCCN1c2ccccc2Sc2ccc(Cl)cc21` gave a Kd in [1] (setting [18]) of 0.6 ± 0.1 µM.

For `CNC(C)Cc1ccc2c(c1)OCO2` (stereo not drawn), the binding result in experiment [2] is “no”. For the same compound, the Kd in experiment [3] turned out to be 24.5 ± 0.9 µM; in experiment [1] (setting [18]) it was 103 ± 4 µM.

Regarding `CN[C@@H](C)Cc1ccccc1`, the binding result in [4] was “no”. This compound returned a Kd in [1] of more than 1000 µM.

In turn, `CN[C@@H](C)[C@H](O)c1ccccc1` yielded a Kd in experiment [3] of 64 ± 3 µM.

For `COC(=O)[C@H]1[C@@H](OC(=O)c2ccccc2)C[C@@H]2CC[C@H]1N2C`, the binding entry in experiment [4] was “no”.

On to `NCCc1c[nH]c2ccc(O)cc12`, for which the Kd in experiment [1] (setting [18]) is 55 ± 2 µM.

Regarding `NCCc1ccc(O)c(O)c1`, the binding result in experiment [5] is “yes”. In experiment [6] (setting [17]), this compound registered a Kd of more than 1000 µM.

In the case of `N[C@@H](Cc1ccc(O)cc1)C(=O)O`, the binding entry in experiment [5] is “no”.

With `Nc1ccn([C@@H]2O[C@H](COP(=O)(O)OP(=O)(O)OP(=O)(O)O)[C@@H](O)[C@H]2O)c(=O)n1`, in experiment [7], the binding entry was “no”.

On to `Nc1nc2c(ncn2[C@@H]2O[C@H](COP(=O)(O)OP(=O)(O)OP(=O)(O)O)[C@@H](O)[C@H]2O)c(=O)[nH]1`, for which the binding result in experiment [7] is listed as “no”.

Regarding `Nc1ncnc2c1ncn2[C@@H]1O[C@H](COP(=O)(O)OP(=O)(O)OP(=O)(O)O)[C@@H](O)[C@H]1O`, the binding result in experiment [7] is “yes”. This compound also gave a Kd1 in experiment [8] of 4.1 ± 0.2 µM.

Regarding `O=c1ccn([C@@H]2O[C@H](COP(=O)(O)OP(=O)(O)OP(=O)(O)O)[C@@H](O)[C@H]2O)c(=O)[nH]1`, in experiment [7], the binding result is “no”.

With `CCCC(C(=O)c1ccc2c(c1)OCO2)N1CCCC1` (racemic), the binding result in [9] is “no”; in experiment [4], “yes”. The Kd in [10] is 24.8 ± 0.7 µM; in experiment [1] (setting [18]), 18.8 ± 1.4 µM.

With `CCNC(C)C(=O)c1ccc2c(c1)OCO2` (racemic), the Kd in experiment [6] amounted to 254 ± 22 µM; in experiment [1] (setting [18]) it was 61 ± 2 µM.

For `CNC(C)C(=O)c1ccc(C)cc1` (racemic), the binding result is listed as “yes” in [11]; “no” in experiment [12]; “yes” in [13]; “no” in [14]; “yes” in experiment [16]. Also, the equilibrium dissociation constant (Kd) in experiment [6] (10 mM Tris-HCl pH 7.4, 23 °C, one-site fit with half the racemate concentration) amounted to 15 ± 1.3 µM; in experiment [15], 6.6 ± 0.7 µM.

Regarding `CNC(C)C(=O)c1ccc(F)cc1` (racemic), in experiment [6], the Kd was more than 1000 µM.

For `CNC(C)C(=O)c1ccc(OC)cc1` (racemic), the Kd in experiment [6] (10 mM Tris-HCl pH 7.4, 23 °C, 10-fold lower affinity than mephedrone, half racemate concentration) was 146 ± 34 µM.

For the compound `CNC(C)C(=O)c1ccc2c(c1)OCO2` (racemic), the Kd in experiment [6] is 275 ± 17 µM.

Regarding `CNC(C)C(=O)c1cccc(C)c1` (racemic), the Kd in experiment [6] was more than 1000 µM.

The compound `CNC(C)C(=O)c1ccccc1` (racemic) displayed a dissociation constant Kd in [6] of 654 ± 61 µM.
